{"source": "patent US20120277257A1", "about": "“Methods of Treating Diseases, Pharmaceutical Compositions, and Pharmaceutical Dosage Forms” (MYREXIS, INC., priority 2009, published 2012)", "key": {"[1]": {"tested_on": "MIA PaCa-2 pancreatic cancer", "test": "MIA PaCa-2 pancreatic cancer xenograft", "settings": "100 mg/kg ip, weekly, Day 15"}, "[2]": {"tested_on": "NCI-N87 Her2+ gastric cancer", "test": "NCI-N87 (Her2+) gastric cancer xenograft in athymic nude mice", "assay_type": "in vivo", "settings": "40 mg/kg oral, thrice weekly for three weeks, day 21", "protocol": "The efficacy of Compound 1 was compared to that of SNX-5422 (Serenex, Pfizer, Inc.) on the growth of NCI-N87 (Her2+) human gastric cancer cells as a xenograft in athymic nude mice model. Animals were dosed with either 200 mg/kg of Compound 1 on days 1 through 21 or 40 mg/kg of SNX-5422 thrice weekly for three weeks. Tumor volumes and body weights were determined from Days 1 to 39.\nFive million NCI-N87 cells were implanted subcutaneously in the right flank of female nude mice (Hsd:athymic nude-Foxn1^nu). When the median tumor volume was approximately 123 mm^3, mice were randomized into three cohorts of ten animals. One cohort was dosed orally with vehicle, one cohort was dosed orally with Compound 1 (200 mg/kg) formulated in vehicle, and one cohort was dosed orally with SNX-5422 (40 mg/kg) formulated in dimethylacetamide/polyethylene glycol 300. Vehicle and Compound 1 were administered on days 1-21 and SNX-5422 was administered thrice weekly on Days 1, 3, 5, 8, 10, 12, 15, 17 and 19. The mice were observed daily for mortality and signs of toxicity.\nXenografted mice bearing N-87 tumors (median volume ˜125 mm^3) were dosed orally with Compound 1 for three weeks with the dosing schedules indicated in FIG. 4.\nAdditionally, xenografted mice bearing N-87 tumors (median volume ˜115 mm^3) were dosed orally with Compound 1 for twenty-one days at 200 mg/kg, once daily or 100 mg/kg, twice-daily as indicated in FIG. 5. Tumor growth inhibition (TGI) was monitored up to Day 39."}, "[3]": {"tested_on": "A549 non-small cell lung cancer", "test": "A549 non-small cell lung cancer xenograft", "assay_type": "in vivo, mice", "settings": "maximum tolerated dose, oral once daily for 21 days, Day 22"}}, "data": [{"compound": "O=c1[nH]cc(F)c(=O)[nH]1", "note": "[5-Fluorouracil, reference compound]", "values": [{"measurement": "TGI (tumor growth inhibition)", "setting": "[1]", "value": 58, "unit": "%"}]}, {"compound": "CC1(C)CC(=O)c2c(C(F)(F)F)nn(-c3ccc(C(N)=O)c(N[C@H]4CC[C@H](OC(=O)CN)CC4)c3)c2C1", "note": "[SNX-5422, reference compound]", "values": [{"measurement": "decrease in median tumor volume", "setting": "[2]", "value": 22, "unit": "%"}]}, {"compound": "C#Cc1cccc(Nc2ncnc3cc(OCCOC)c(OCCOC)cc23)c1", "note": "[erlotinib]", "values": [{"measurement": "TGI (tumor growth inhibition)", "setting": "[3]", "value": 88, "unit": "%"}]}]}
